Reference: patent US12473250B2, “Molecular design of new antibiotics and antibiotic adjuvants against MCR strains” (priority 2019, dated 2025)
Values after ≈ are worked out from the molar mass of the structure shown.

How the values were obtained:
Assay type in all cases: cell-based
[1] = test system: colistin resistant MCR (+) E. Coli strains; test: MIC, broth microdilution, compound alone; conditions: compound alone
Protocol: (§1) MIC experiments of the antimicrobial agents were determined by a modified broth microdilution method in accordance with the Clinical and Laboratory Standards Institute (CLSI) guidelines using 96 well culture plates. In brief, serial dilutions of all plates were prepared at different concentrations (μg). The inoculum suspension was prepared by adding isolated colonies from a 18-20 hours on TSA plate into phosphate buffer (0.31 mM, pH 7.2) or in water for injection (BBraun) and adjusting the suspension to a turbidity equivalent to 0.5 McFarland Standard. Each well contained a final bacterial concentration of approximately 5×10^5 colony forming units (CFU)/mL. The plate was covered and incubated at 35° C. for 24 hours. […] For the microdilution plates, turbidity in wells can be measured at OD600 using TECAN infinite M200Pro. MIC was determined as […] concentration that gives a 99 percent inhibition.

[2] = test system: colistin resistant MCR (−) E. Cloacae strain 7023456439; test: MIC, broth microdilution, compound alone; conditions: strain 7023456439 E. Cloacae
Protocol: as §1

[3] = test system: colistin resistant MCR (−) E. Coli strains; test: MIC, broth microdilution, compound alone
Protocol: as §1

[4] = test system: colistin resistant MCR (+) E. Coli strains; test: Synergy study: colistin MIC in the presence of compound
Protocol: (§2) The MICs of the individual drugs and LC compound in combinations were determined using the broth microdilution technique as recommended by the CLSI whereby the two anti-microbial agents were added in an equal amount. (e.g.: 50 μL of Colistin: 50 μL of LC compounds). Diluted media containing compounds and antibiotics will be serially diluted 2-fold, and LC compounds and antibiotics alone or in combination will be assayed at fixed synergy concentration. In all cases, the lowest concentration at which no visible growth occurred was be recorded to be the MIC value of individual and combined antibacterial agents. The results were obtained after 24 hours of incubation.

[5] = test system: colistin resistant MCR (−) E. Cloacae strain 7023456439; test: as above; conditions: strain 7023456439 E. Cloacae
Protocol: as §2

[6] = test system: colistin resistant MCR (−) E. Coli strains; test: as above
Protocol: as §2

[7] = strain 7028444207 (Table 1b), MCR (+)
[8] = compound at 10 μg (Table 2a: 10 ug/ml)
[9] = strain 6083672926, MCR(−), compound at 10 μg (Table 2a: 10 ug/ml)
[10] = strain 7023446108, MCR(−), compound at 10 μg (Table 2a: 10 ug/ml)
[11] = strain 7033607097, MCR(−), compound at 10 μg (Table 2a: 10 ug/ml)
[12] = strain 6075066346, MCR(+), compound at 2 μg
[13] = strain 6083655967, MCR(+), compound at 2 μg
[14] = strain 6103645107, MCR(+), compound at 2 μg
[15] = strain 6123520276, MCR(+), compound at 2 μg
[16] = strain 7013177695, MCR(+), compound at 2 μg
[17] = strain 7023436560, MCR(+), compound at 2 μg
[18] = strain 7023444207, MCR(+), compound at 2 μg
[19] = strain 6083672926, MCR(−), compound at 2 μg
[20] = strain 7023446108, MCR(−), compound at 2 μg
[21] = strain 7033607097, MCR(−), compound at 2 μg
[22] = compound at 5 μg (Table 2a: 5 ug/ml)
[23] = strain 6083672926, MCR(−), compound at 5 μg (Table 2a: 5 ug/ml)
[24] = strain 7023446108, MCR(−), compound at 5 μg (Table 2a: 5 ug/ml)
[25] = strain 7033607097, MCR(−), compound at 5 μg (Table 2a: 5 ug/ml)

SMILES | MIC ([1]; strain 6075066346, MCR (+)) | MIC ([1]; strain 6083655967, MCR (+)) | MIC ([1]; strain 6103645107, MCR (+)) | MIC ([1]; strain 6123520276, MCR (+)) | MIC ([1]; strain 7013177695, MCR (+)) | MIC ([1]; strain 7023436560, MCR (+)) | MIC [2] | MIC ([3]; strain 6083672926, MCR (−)) | MIC ([3]; strain 7023446108, MCR (−)) | MIC ([3]; strain 7033607097, MCR (−)) | MIC ([1]; strain 7023444207, MCR (+)) | Colistin MIC in the presence of the compound [5, 22] | Colistin MIC in the presence of the compound [6, 23] | Colistin MIC in the presence of the compound [6, 24] | Colistin MIC in the presence of the compound [6, 25] | also measured
Cc1cc(OCCCCC[N+](C)(C)C)cc(OCCCCC[N+](C)(C)C)c1 [LC310] | >50 µg/mL | >50 µg/mL | >50 µg/mL | >50 µg/mL | >50 µg/mL | >50 µg/mL | >50 µg/mL | >50 µg/mL | >50 µg/mL | >50 µg/mL |  |  |  |  |  | MIC [1, 7]: >50 µg/mL; Colistin MIC in the presence of the compound ([4]; strain 6075066346, MCR(+), compound at 10 μg (Table 2a: 10 ug/ml)): 6.25 µg/mL; Colistin MIC in the presence of the compound ([4]; strain 6083655967, MCR(+), compound at 10 μg (Table 2a: 10 ug/ml)): 6.25 µg/mL; Colistin MIC in the presence of the compound ([4]; strain 6103645107, MCR(+), compound at 10 μg (Table 2a: 10 ug/ml)): 6.25 µg/mL; Colistin MIC in the presence of the compound ([4]; strain 6123520276, MCR(+), compound at 10 μg (Table 2a: 10 ug/ml)): 6.25 µg/mL; Colistin MIC in the presence of the compound ([4]; strain 7013177695, MCR(+), compound at 10 μg (Table 2a: 10 ug/ml)): 6.25 µg/mL; Colistin MIC in the presence of the compound ([4]; strain 7023436560, MCR(+), compound at 10 μg (Table 2a: 10 ug/ml)): 6.25 µg/mL; Colistin MIC in the presence of the compound ([4]; strain 7023444207, MCR(+), compound at 10 μg (Table 2a: 10 ug/ml)): 6.25 µg/mL; Colistin MIC in the presence of the compound [5, 8]: 6.25 µg/mL; Colistin MIC in the presence of the compound [6, 9]: 6.25 µg/mL; Colistin MIC in the presence of the compound [6, 10]: 6.25 µg/mL; Colistin MIC in the presence of the compound [6, 11]: 6.25 µg/mL
CC(C)=CCc1c(OCCCCC[N+](C)(C)C)ccc(C(=O)/C=C/c2ccc(OCCCCC[N+](C)(C)C)cc2)c1O [LC311] | 3.125 µg/mL | 3.125 µg/mL | 3.125 µg/mL | 6.25 µg/mL | 6.25 µg/mL | 3.125 µg/mL | 6.25 µg/mL | 3.125 µg/mL | 3.125 µg/mL | 6.25 µg/mL |  |  |  |  |  | MIC [1, 7]: 3.125 µg/mL; Colistin MIC in the presence of the compound [4, 12]: 0.78 µg/mL; Colistin MIC in the presence of the compound [4, 13]: 0.39 µg/mL; Colistin MIC in the presence of the compound [4, 14]: 0.39 µg/mL; Colistin MIC in the presence of the compound [4, 15]: 0.39 µg/mL; Colistin MIC in the presence of the compound [4, 16]: 0.78 µg/mL; Colistin MIC in the presence of the compound [4, 17]: 0.39 µg/mL; Colistin MIC in the presence of the compound [4, 18]: 0.39 µg/mL; Colistin MIC in the presence of the compound ([5]; compound at 2 μg): >12.5 µg/mL; Colistin MIC in the presence of the compound [6, 19]: 0.39 µg/mL; Colistin MIC in the presence of the compound [6, 20]: 0.78 µg/mL; Colistin MIC in the presence of the compound [6, 21]: 0.195 µg/mL
CC(C)=CCc1c(OCCCC[n+]2ccn(C)c2)ccc(C(=O)/C=C/c2ccc(OCCCC[n+]3ccn(C)c3)cc2)c1O [LC350] | 3.125 µg/mL | 3.125 µg/mL | 3.125 µg/mL | 3.125 µg/mL | 3.125 µg/mL | 3.125 µg/mL | >50 µg/mL | 3.125 µg/mL | 3.125 µg/mL | 3.125 µg/mL | 3.125 µg/mL |  |  |  |  | Colistin MIC in the presence of the compound [4, 12]: 0.195 µg/mL; Colistin MIC in the presence of the compound [4, 13]: 0.195 µg/mL; Colistin MIC in the presence of the compound [4, 14]: 0.195 µg/mL; Colistin MIC in the presence of the compound [4, 15]: 0.195 µg/mL; Colistin MIC in the presence of the compound [4, 16]: 0.195 µg/mL; Colistin MIC in the presence of the compound [4, 17]: 0.195 µg/mL; Colistin MIC in the presence of the compound [4, 18]: 0.195 µg/mL; Colistin MIC in the presence of the compound ([5]; compound at 2 μg): >12.5 µg/mL; Colistin MIC in the presence of the compound [6, 19]: 0.195 µg/mL; Colistin MIC in the presence of the compound [6, 20]: 0.195 µg/mL; Colistin MIC in the presence of the compound [6, 21]: 0.195 µg/mL
CN(C)CCCN(C)CCCCOc1ccc(C2COc3c(ccc4c3C=CC(C)(C)O4)C2)c(OCCCCN(C)CCCN(C)C)c1 (stereo not shown) [LC096] | 25 µg/mL (≈ 37.6 µM) | 25 µg/mL (≈ 37.6 µM) | 12.5 µg/mL (≈ 18.8 µM) | 25 µg/mL (≈ 37.6 µM) | 25 µg/mL (≈ 37.6 µM) | 25 µg/mL (≈ 37.6 µM) | >25 µg/mL | 12.5 µg/mL (≈ 18.8 µM) | 25 µg/mL (≈ 37.6 µM) | 12.5 µg/mL (≈ 18.8 µM) | 25 µg/mL (≈ 37.6 µM) | >25 µg/mL | <0.195 µg/mL | <0.195 µg/mL | <0.195 µg/mL | Colistin MIC in the presence of the compound ([4]; strain 6075066346, MCR(+), compound at 5 μg (Table 2a: 5 ug/ml)): <0.195 µg/mL; Colistin MIC in the presence of the compound ([4]; strain 6083655967, MCR(+), compound at 5 μg (Table 2a: 5 ug/ml)): <0.195 µg/mL; Colistin MIC in the presence of the compound ([4]; strain 6103645107, MCR(+), compound at 5 μg (Table 2a: 5 ug/ml)): <0.195 µg/mL; Colistin MIC in the presence of the compound ([4]; strain 6123520276, MCR(+), compound at 5 μg (Table 2a: 5 ug/ml)): <0.195 µg/mL; Colistin MIC in the presence of the compound ([4]; strain 7013177695, MCR(+), compound at 5 μg (Table 2a: 5 ug/ml)): <0.195 µg/mL; Colistin MIC in the presence of the compound ([4]; strain 7023436560, MCR(+), compound at 5 μg (Table 2a: 5 ug/ml)): <0.195 µg/mL; Colistin MIC in the presence of the compound ([4]; strain 7023444207, MCR(+), compound at 5 μg (Table 2a: 5 ug/ml)): <0.195 µg/mL
CC(C)=CCc1c(OCCCCN(C)CCCN(C)C)ccc(C(=O)/C=C/c2ccc(OCCCCN(C)CCCN(C)C)cc2)c1O [LC098] | 6.25 µg/mL (≈ 9.4 µM) | 6.25 µg/mL (≈ 9.4 µM) | 6.25 µg/mL (≈ 9.4 µM) | 6.25 µg/mL (≈ 9.4 µM) | 6.25 µg/mL (≈ 9.4 µM) | 6.25 µg/mL (≈ 9.4 µM) | >25 µg/mL | 12.5 µg/mL (≈ 18.8 µM) | 6.25 µg/mL (≈ 9.4 µM) | 6.25 µg/mL (≈ 9.4 µM) | 6.25 µg/mL (≈ 9.4 µM) | 25 µg/mL | 0.195 µg/mL | 0.195 µg/mL | 0.195 µg/mL | 
CC(C)=CCc1c(OCCCCN(CCCN(C)C)CCCN(C)C)ccc(C(=O)/C=C/c2ccc(OCCCCN(CCCN(C)C)CCCN(C)C)cc2)c1O [LC097] | 25 µg/mL (≈ 31 µM) | 25 µg/mL (≈ 31 µM) | 12.5 µg/mL (≈ 15.5 µM) | 25 µg/mL (≈ 31 µM) | 12.5 µg/mL (≈ 15.5 µM) | 12.5 µg/mL (≈ 15.5 µM) | >25 µg/mL | 25 µg/mL (≈ 31 µM) | 12.5 µg/mL (≈ 15.5 µM) | 12.5 µg/mL (≈ 15.5 µM) | 25 µg/mL (≈ 31 µM) | >12.5 µg/mL | 0.195 µg/mL | 0.195 µg/mL | 0.195 µg/mL | 
CC(C)=CCc1c(OCC(=O)NC(CCCNC(=N)N)C(N)=O)ccc(C(=O)/C=C/c2ccc(OCC(=O)NC(CCCNC(=N)N)C(N)=O)cc2)c1O (stereo not shown) [LC131] | >50 µg/mL | >50 µg/mL | >50 µg/mL | >50 µg/mL | >50 µg/mL | >50 µg/mL | >50 µg/mL | >50 µg/mL | >50 µg/mL | >50 µg/mL | >50 µg/mL |  |  |  |  | Colistin MIC in the presence of the compound [5, 8]: >12.5 µg/mL; Colistin MIC in the presence of the compound [6, 9]: 12.5 µg/mL; Colistin MIC in the presence of the compound [6, 10]: 6.25 µg/mL; Colistin MIC in the presence of the compound [6, 11]: 6.25 µg/mL
